# Read-outs that look alike come from different tables or passages of the source.
# System: cancer cell lines
# Assay: Cancer cell proliferation activity (CellTiterGlo, 72 h)
# Assay type: cell-based
# Conditions: 72 h, 72 h, read-out: IC50
# How it was run: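 Readout is CellTiterGlo luminescence after 72 h compound exposure (0.1% DMSO final), started one day post-seeding, at 37 °C.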
structure (smiles),measurement,setting,value
"Cc1cn([C@H]2C[C@H](O)[C@@](C#N)(CO)O2)c(=O)[nH]c1=O [Cpd. No. 123, (2R,3S,5R)-3-hydroxy-2-(hydroxymethyl)-5-(5-methyl-2,4-dioxo-3,4-dihydropyrimidin-1(2H)-yl)tetrahydrofuran-2-carbonitrile]",IC50,5637 cell line (bladder),> 50 µM
same,IC50,AS49 cell line (lung),> 50 µM
same,IC50,CLS439 cell line (bladder),> 50 µM
same,IC50,HS729 cell line (muscle),> 50 µM
same,IC50,JAR cell line (placenta),> 50 µM
same,IC50,"Homo sapiens, 786-0, 72 h, 786O cell line (kidney)",> 50 µM
same,IC50,"Homo sapiens, A2780, 72 h, A2780 cell line (ovary)",> 50 µM
same,IC50,"Homo sapiens, A-375, 72 h, A375 cell line (skin)",> 50 µM
same,IC50,"Homo sapiens, A-431, 72 h, A431 cell line (skin)",2.6 µM
same,IC50,"Homo sapiens, ASPC1, 72 h, ASPC1 cell line (pancreas)",> 50 µM
same,IC50,"Homo sapiens, BT-20, 72 h, BT20 cell line (breast)",> 50 µM
same,IC50,"Homo sapiens, CAKI-1, 72 h, CAKI1 cell line (kidney)",> 50 µM
same,IC50,"Homo sapiens, COLO 205, 72 h, COLO205 cell line (colon)",> 50 µM
same,IC50,"Homo sapiens, COLO-678, 72 h, COLO678 cell line (colon)",> 50 µM
same,IC50,"Homo sapiens, Ca-Ski, CASKI cell line (cervical)",> 50 µM
same,IC50,"Homo sapiens, Caco-2, 72 h, CACO2 cell line (colon)",> 50 µM
same,IC50,"Homo sapiens, Calu-6, 72 h, CALU6 cell line (lung)",> 50 µM
same,IC50,"Homo sapiens, EFO-21, 72 h, EFO21 cell line (ovary)",> 50 µM
same,IC50,"Homo sapiens, EJ-28, 72 h, EJ28 cell line (bladder)",> 50 µM
same,IC50,"Homo sapiens, HCT-15, 72 h, HCT15 cell line (colon)",> 50 µM
same,IC50,"Homo sapiens, HCT-116, 72 h, HCT116 cell line (colon)",> 50 µM
same,IC50,"Homo sapiens, HEK293, 72 h, HEK293 cell line (kidney)",> 50 µM
same,IC50,"Homo sapiens, HL-60, 72 h, HL-60 cell line (hematological)",> 50 µM
same,IC50,"Homo sapiens, HT-29, 72 h, HT29 cell line (colon)",> 50 µM
same,IC50,"Homo sapiens, HT-1080, 72 h, HT1080 cell line (connective tissue)",> 50 µM
same,IC50,"Homo sapiens, HeLa, HELA cell line (cervical)",> 50 µM
same,IC50,"Homo sapiens, Hs-578T, HS578T cell line, breast",> 50 µM
same,IC50,"Homo sapiens, IGROV-1, 72 h, IGROV1 cell line (ovary)",> 50 µM
same,IC50,"Homo sapiens, IMR-90, 72 h, IMR90 cell line, lung",> 50 µM
same,IC50,"Homo sapiens, J82, 72 h, J82 cell line (bladder)",4.88 µM
same,IC50,"Homo sapiens, JEG-3, 72 h, JEG3 cell line (placenta)",> 50 µM
same,IC50,"Homo sapiens, JIMT-1, 72 h, JIMT1 cell line (breast)",> 50 µM
same,IC50,"Homo sapiens, K562, 72 h, K-562 cell line (hematological)",> 50 µM
same,IC50,"Homo sapiens, Kasumi 1, 72 h, KASUMI-1 cell line (hematological)",> 50 µM
same,IC50,"Homo sapiens, L-363, 72 h, L-363 cell line (hematological)",> 50 µM
same,IC50,"Homo sapiens, MCF7, 72 h, MCF7 cell line (breast)",> 50 µM
same,IC50,"Homo sapiens, MDA-MB-231, 72 h, MDAMB231 cell line (breast)",> 50 µM
same,IC50,"Homo sapiens, MDA-MB-435, 72 h, MDAMB435 cell line (skin)",> 50 µM
same,IC50,"Homo sapiens, MDA-MB-468, 72 h, MDAMB468 cell line (breast)",> 50 µM
same,IC50,"Homo sapiens, MG-63, 72 h, MG63 cell line (bone)",> 50 µM
same,IC50,"Homo sapiens, MIA PaCa-2, 72 h, MIAPACA2 cell line (pancreas)",> 50 µM
same,IC50,"Homo sapiens, MV4-11, 72 h, MV4-11 cell line (hematological)",0.38 µM
same,IC50,"Homo sapiens, NCI-H292, 72 h, NCIH292 cell line (lung)",> 50 µM
same,IC50,"Homo sapiens, NCI-H460, 72 h, NCIH460 cell line (lung)",2.8 µM
same,IC50,"Homo sapiens, OVCAR-3, 72 h, OVCAR3 cell line (ovary)",> 50 µM
same,IC50,"Homo sapiens, OVCAR-4, 72 h, OVCAR4 cell line (ovary)",> 50 µM
same,IC50,"Homo sapiens, PANC-1, 72 h, PANC1 cell line (pancreas)",> 50 µM
same,IC50,"Homo sapiens, PC-3, 72 h, PC3 cell line (prostate)",> 50 µM
same,IC50,"Homo sapiens, Panc1005, 72 h, PANC1005 cell line (pancreas)",> 50 µM
same,IC50,"Homo sapiens, RD, RD cell line (muscle)",> 50 µM
same,IC50,"Homo sapiens, Ramos, RAMOS cell line (hematological)",> 50 µM
same,IC50,"Homo sapiens, SAOS-2, 72 h, SAOS2 cell line (bone)",> 50 µM
same,IC50,"Homo sapiens, SF-295, 72 h, SF295 cell line (brain)",> 50 µM
same,IC50,"Homo sapiens, SK-MEL-5, 72 h, SKMEL5 cell line, skin",> 50 µM
same,IC50,"Homo sapiens, SK-MEL-28, 72 h, SKMEL28 cell line (skin)",> 50 µM
same,IC50,"Homo sapiens, SK-N-AS, SKNAS cell line (brain)",> 50 µM
same,IC50,"Homo sapiens, SK-N-SH, SKNSH cell line (brain)",> 50 µM
same,IC50,"Homo sapiens, SK-OV-3, 72 h, SKOV3 cell line (ovary)",> 50 µM
same,IC50,"Homo sapiens, SU-DHL10, 72 h, SU-DHL-10 cell line (hematological)",> 50 µM
same,IC50,"Homo sapiens, SW-620, 72 h, SW620 cell line (colon)",> 50 µM
same,IC50,"Homo sapiens, T-24, 72 h, T24 cell line (bladder)",3.01 µM
same,IC50,"Homo sapiens, TE-671, 72 h, TE671 cell line (muscle)",> 50 µM
same,IC50,"Homo sapiens, U2OS, U2OS cell line (bone)",> 50 µM
same,IC50,"Homo sapiens, UMUC3, 72 h, UMUC3 cell line (bladder)",> 50 µM
same,IC50,"Homo sapiens, UO-31, 72 h, UO31 cell line (kidney)",> 50 µM
same,IC50,"MT-3, 72 h, MT3 cell line (breast)",3.77 µM
same,IC50,"NCI-H358M, NCIH358M cell line (lung)",> 50 µM
same,IC50,"PBMC, PBMC (hematological)",> 50 µM

# From patent publication US20250215039A1, “NUCLEOSIDES FOR TREATING CANCER” (PRIMEFOUR THERAPEUTICS, INC., priority 2022, published 2025)
